In PubChem BioAssay AID248 (DTP/NCI, 2004):
“And” between values parts separate entries of the source, which are not always exact repeats. Equal values may be shown once. Toxic doses and inconclusive results are not listed. No stated cut-off is given here; in the data, active means T/C of 150% or more; inactive means T/C below 125%.

Test system: L1210 leukemia ip in BDF1 mice, survival T/C
Assay: NCI In Vivo Anticancer Drug Screen. Data for tumor model L1210 Leukemia (intraperitoneal) in B6D2F1 (BDF1) mice
Conditions: endpoint: mean survival time, higher = longer survival
Method in brief: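 Read-out is survival time, reported as the treated-group measurement over the vehicle-control measurement.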

[1] = dose: 50.0 mg/kg/injection, schedule: Q01DX001 (ip), vehicle: carboxymethylcellulose (CMC)
[2] = dose: 100.0 mg/kg/injection, schedule: Q01DX001 (ip), vehicle: carboxymethylcellulose (CMC)
[3] = dose: 200.0 mg/kg/injection, schedule: Q01DX001 (ip), vehicle: carboxymethylcellulose (CMC)
[4] = dose: 400.0 mg/kg/injection, schedule: Q01DX001 (ip), vehicle: carboxymethylcellulose (CMC)
[5] = dose: 100.0 mg/kg/injection, schedule: Q01DX001 (ip), vehicle: Klucel (hydroxypropylcellulose) (HPC)
[6] = dose: 200.0 mg/kg/injection, schedule: Q01DX001 (ip), vehicle: Klucel (hydroxypropylcellulose) (HPC)
[7] = dose: 100.0 mg/kg/injection, schedule: Q04DX003 (ip), vehicle: saline with Tween-80
[8] = dose: 200.0 mg/kg/injection, schedule: Q04DX003 (ip), vehicle: saline with Tween-80
[9] = dose: 400.0 mg/kg/injection, schedule: Q04DX003 (ip), vehicle: saline with Tween-80
[10] = dose: 100.0 mg/kg/injection, schedule: Q01DX009 (ip), vehicle: Klucel (hydroxypropylcellulose) (HPC)
[11] = dose: 200.0 mg/kg/injection, schedule: Q01DX009 (ip), vehicle: Klucel (hydroxypropylcellulose) (HPC)

Measured: T/C

O=C1C2(c3ccccc3)CC(CBr)C1(c1ccccc1)C(c1ccccc1)=C2c1ccccc1 (stereo not given)
inactive: [1] 97 % of control | [2] 100 % of control | [3] 97 % of control | [4] 97 % of control

Cc1cc(C)c2ccc([S+](C)C)c-2c(C)c1
inactive: dose: 5.0 mg/kg/injection, schedule: Q01DX001 (ip), vehicle: carboxymethylcellulose (CMC) 105 % of control | dose: 10.0 mg/kg/injection, schedule: Q01DX001 (ip), vehicle: carboxymethylcellulose (CMC) 100 % of control | dose: 20.0 mg/kg/injection, schedule: Q01DX001 (ip), vehicle: carboxymethylcellulose (CMC) 105 % of control | dose: 40.0 mg/kg/injection, schedule: Q01DX001 (ip), vehicle: carboxymethylcellulose (CMC) 108 % of control | dose: 80.0 mg/kg/injection, schedule: Q01DX001 (ip), vehicle: carboxymethylcellulose (CMC) 97 % of control

CC(CC(=O)O)[Se][Se]C(C)CC(=O)O (stereo not given)
inactive: [5] 108 % of control | [6] 102 % of control

Cc1ccc(C(=O)C(F)(F)F)cc1
inactive: [7] 96 % of control | [8] 102 % of control

Nc1nccc(Cl)n1
inactive: dose: 12.5 mg/kg/injection, schedule: Q01DX009 (ip), vehicle: saline with Tween-80 89 % of control | dose: 25.0 mg/kg/injection, schedule: Q01DX009 (ip), vehicle: saline with Tween-80 92 % of control | dose: 50.0 mg/kg/injection, schedule: Q01DX009 (ip), vehicle: saline with Tween-80 92 % of control

COc1ccc(NC(=O)Oc2ccccc2-c2ccccc2)cc1
inactive: [7] 91 % of control | [8] 91 % of control | [9] 86 % of control

CC(=O)Oc1c2ccsc2cc2sccc12
inactive: dose: 100.0 mg/kg/injection, schedule: Q01DX001 (ip), vehicle: saline with Tween-80 96 % of control | dose: 200.0 mg/kg/injection, schedule: Q01DX001 (ip), vehicle: saline with Tween-80 94 % of control | dose: 400.0 mg/kg/injection, schedule: Q01DX001 (ip), vehicle: saline with Tween-80 94 % of control

O=C(COc1ccc(Cl)cc1)OCCCl
inactive: dose: 87.5 mg/kg/injection, schedule: Q01DX009 (ip), vehicle: other 104 % of control | dose: 100.0 mg/kg/injection, schedule: Q04DX003 (ip), vehicle: Klucel (hydroxypropylcellulose) (HPC) 95 % of control | dose: 175.0 mg/kg/injection, schedule: Q01DX009 (ip), vehicle: other 98 % of control | dose: 200.0 mg/kg/injection, schedule: Q04DX003 (ip), vehicle: Klucel (hydroxypropylcellulose) (HPC) 97 % of control | dose: 350.0 mg/kg/injection, schedule: Q01DX009 (ip), vehicle: other 104 % of control | dose: 400.0 mg/kg/injection, schedule: Q04DX003 (ip), vehicle: Klucel (hydroxypropylcellulose) (HPC) 91 % of control

CCOC(=O)CCCN(c1sc(C)c(C)c1C(=O)OCC)S(=O)(=O)c1ccc(C)cc1
inactive: dose: 50.0 mg/kg/injection, schedule: Q01DX009 (ip), vehicle: Klucel (hydroxypropylcellulose) (HPC) 86 % of control | dose: 50.0 mg/kg/injection, schedule: Q04DX003 (ip), vehicle: saline with Tween-80 97 % of control | [10] 105 % of control | [7] 97 % of control | [11] 86 % of control | [8] 97 % of control | dose: 400.0 mg/kg/injection, schedule: Q01DX009 (ip), vehicle: Klucel (hydroxypropylcellulose) (HPC) 90 % of control | [9] 101 % of control

CC(C)(C)C1(C)CN(N=O)C(=O)O1 (stereo not given)
inactive: dose: 12.5 mg/kg/injection, schedule: Q04DX003 (ip), vehicle: Klucel (hydroxypropylcellulose) (HPC) 114 % of control | dose: 25.0 mg/kg/injection, schedule: Q04DX003 (ip), vehicle: Klucel (hydroxypropylcellulose) (HPC) 104 % of control

CC(=O)Nc1ccc(C(=O)C(O)c2ccc(NC(C)=O)cc2)cc1 (stereo not given)
inactive: dose: 50.0 mg/kg/injection, schedule: Q01DX001 (ip), vehicle: other 100 % of control | dose: 100.0 mg/kg/injection, schedule: Q01DX001 (ip), vehicle: other 92 % of control | dose: 200.0 mg/kg/injection, schedule: Q01DX001 (ip), vehicle: other 105 % of control | dose: 400.0 mg/kg/injection, schedule: Q01DX001 (ip), vehicle: other 88 % of control

CCCCNC(=O)/C(=C\c1ccccc1)NC(C)=O
inactive: dose: 3.0 mg/kg/injection, schedule: Q04DX003 (ip), vehicle: DMSO 92 % of control | dose: 6.0 mg/kg/injection, schedule: Q04DX003 (ip), vehicle: DMSO 92 % of control | dose: 6.25 mg/kg/injection, schedule: Q01DX009 (ip), vehicle: DMSO 96 % of control | dose: 12.0 mg/kg/injection, schedule: Q04DX003 (ip), vehicle: DMSO 94 % of control | dose: 12.5 mg/kg/injection, schedule: Q01DX009 (ip), vehicle: DMSO 93 % of control | dose: 12.5 mg/kg/injection, schedule: Q04DX003 (ip), vehicle: DMSO 100 % of control

CCOC(=O)C1CC2(SCCS2)C(C(=O)O)CC12SCCS2 (stereo not given)
inactive: dose: 100.0 mg/kg/injection, schedule: Q04DX003 (ip), vehicle: other 103 % of control | dose: 200.0 mg/kg/injection, schedule: Q04DX003 (ip), vehicle: other 92 % of control | dose: 400.0 mg/kg/injection, schedule: Q04DX003 (ip), vehicle: other 97 % of control

Cc1cnc(Cl)nc1N1CC1
inactive: dose: 1.0 mg/kg/injection, schedule: Q01DX Z (ip), vehicle: methylcellulose (MC) 91 % of control

CCCCCCCCCC(=O)N/N=C/c1ccco1
inactive: [10] 87 % of control | [11] 99 % of control

CC1/C(=N\O)CC2C3(C)CCC2(C(C)C(=O)O)C(=O)C13 (stereo not given)
inactive: [5] 100 % of control | [6] 100 % of control | dose: 400.0 mg/kg/injection, schedule: Q01DX001 (ip), vehicle: Klucel (hydroxypropylcellulose) (HPC) 92 % of control

O=[N+]([O-])c1[nH]cnc1S(=O)(=O)Cl
inactive: dose: 100.0 mg/kg/injection, schedule: Q01DX001 (ip), vehicle: saline 94 % of control | dose: 200.0 mg/kg/injection, schedule: Q01DX001 (ip), vehicle: saline 94 % of control | dose: 400.0 mg/kg/injection, schedule: Q01DX001 (ip), vehicle: saline 97 % of control

CCCCC(=O)N1CCCCC1C (stereo not given)
inactive: [1] 102 % of control | dose: 50.0 mg/kg/injection, schedule: Q01DX009 (ip), vehicle: carboxymethylcellulose (CMC) 94 % of control and 100 % of control | dose: 50.0 mg/kg/injection, schedule: Q04DX003 (ip), vehicle: carboxymethylcellulose (CMC) 96 % of control | [2] 101 % of control | dose: 100.0 mg/kg/injection, schedule: Q01DX009 (ip), vehicle: carboxymethylcellulose (CMC) 97 % of control and 98 % of control | dose: 100.0 mg/kg/injection, schedule: Q04DX002 (ip), vehicle: carboxymethylcellulose (CMC) 105 % of control | dose: 100.0 mg/kg/injection, schedule: Q04DX003 (ip), vehicle: carboxymethylcellulose (CMC) 100 % of control | [3] 101 % of control | dose: 200.0 mg/kg/injection, schedule: Q01DX009 (ip), vehicle: carboxymethylcellulose (CMC) 96 % of control and 97 % of control | dose: 200.0 mg/kg/injection, schedule: Q04DX002 (ip), vehicle: carboxymethylcellulose (CMC) 98 % of control | dose: 200.0 mg/kg/injection, schedule: Q04DX003 (ip), vehicle: carboxymethylcellulose (CMC) 105 % of control | dose: 400.0 mg/kg/injection, schedule: Q04DX002 (ip), vehicle: carboxymethylcellulose (CMC) 102 % of control

C=CCOc1cc(C)ccc1C
inactive: [2] 98 % of control | [3] 95 % of control | [4] 98 % of control
